Test results from patent publication US20050037074A1, “Delayed and sustained drug release” (priority 2001, published 2005).
Read-outs that look alike come from different tables or passages of the source. Marks after values point to notes of the source that are not given here.

Tests used:
[1] = cited from earlier work
[2] = 20 mg hydrocortisone, cited from earlier work
[3] = Study 2: pharmacokinetics of individually tailored (BSA- or weight-adjusted) dose of oral HC in adrenal-insufficient patients; type: in vivo, human; conditions: fasted
Method: (§1) Serum was separated from blood samples immediately after collection and stored at minus 20° C. until analysis. Cortisol concentrations were measured using an ACS:180 automatic chemiluminescence system (Kiron Diagnostic Corporation, East Walpole, USA). Intra- and inter-assay coefficients of variation were less than 7.6%.
(§2) The study was carried out in two groups of adrenal-insufficient patients, and a group of healthy subjects. It was approved by the North Sheffield Local Research Ethics Committee, and all participants gave written informed consent. All patients had primary or secondary adrenal insufficiency based on a 0900 h serum cortisol level off treatment of less than 50 nmol/l. Normal controls were matched to the second group of patients for gender, age, height, weight and BSA within 10% of individual patients. Patients on oestrogen replacement were studied after having stopped oestrogen for 6 weeks.
Study 2—Pharmacokinetics of individually tailored dose of oral HC and testing of monitoring protocol: A further 10 patients (6M, 4F; 46-68 y; BMI 24.4-35.5 kg/m^2) were studied after receiving HC doses of 5.5 mg/m^2 BSA (to the nearest practical dose unit) at 0830 h, 1 h before breakfast. The dosage was derived from analysis of the Study 1 data to minimise inter-subject variability. A tablet cutter was used to adjust the HC dose in 2.5 mg quanta, i.e. quarters of 10 mg tablets. Thus, the absolute dose ranged from 7.5 to 12.5 mg. Blood sampling was as in Study 1. Serum concentrations of endogenous cortisol were measured in 7 healthy subjects (3M, 4F; 44-68 y; BMI 23.2-28.7 kg/m^2) at the same time points as the patients but without ingestion of HC.
Owing to the discrete nature of dose increments (multiples of 2.5 mg) 9 of the 10 patients who had taken the BSA-adjusted HC dose would still require the same dose if this had been weight-adjusted. Only one of the 10 patients needed a reduction in the HC dose from 12.5 mg to 10.0 mg to be in the nearest weight-adjusted dose range.
Therefore, in the part of our analysis that was related to body weight-adjusted doses, the serum cortisol levels of this patient were normalised to a 10.0 mg dose assuming concentration-dose proportionality.
(§3) Kinetic analysis of the serum cortisol concentration-time profiles in the patients was carried out using the software package, P-Pharm (version 1.5, InnaPhase, France), assuming mono-exponential disposition, first-order absorption, and a baseline correction to account for any endogenous levels of cortisol. Values of oral clearance (CL/F), volume of distribution (V/F), absorption rate constant (ka) and absorption lag time (tlag) were obtained from the model fitting and were used to derive other parameter values. Bias in dosing was assessed as the percentage difference in AUC values in patients compared to the AUC of endogenous cortisol in the healthy subjects over the same time period. Variability in the features of the serum cortisol concentration-time profile in the patients was expressed as coefficient of variation (CV). The effect of food intake in Study 1 was assessed using ANOVA, accounting for repeat individual measurements in the fasting state. Body surface area, weight, height, BMI, dose of HC, gender and age were also investigated as co-variables. All statistical analyses were carried out using SPSS version 10.0 (SPSS Inc, USA).

[4] = system: ACTH; assay: Circadian hydrocortisone infusion in a patient with congenital adrenal hyperplasia (CAH), ACTH and 17-OH progesterone; type: in vivo, human
Method: A treatment regime involves the following protocol. A patient begins a treatment regime at 0830 having taken normal medication the day before. An indwelling cannula is inserted into the patient and basal blood samples are obtained to determine basal levels of cortisol. An infusion cannula is inserted for the administration of a bolus dose of hydrocortisone. Hydrocortisone is administered by infusion once basal samples taken (Patient details: body weight=113 kg; iv bolus 24 mg at 09:00 and follow the infusion rates changed on hourly bases). Total dose for the 1st day is 34.3 mg and 21.8 mg is given by 09:00 in the 2nd day). Samples are taken from the patient periodically from 0900 to 0900 and sampled hourly for cortisol, and ACTH
Dilute 100 mg of hydrocortisone in 2 ml of water for injection (concentration 1 mg/20 ul). Give bolus injection of 24 mg hydrocortisone (480 ul or 0.48 ml of hydrocortisone) using a 1 ml insulin syringe. Flush through with normal saline. For infusion put 50 mg of hydrocortisone (1 ml) in 49 mls normal saline=1 mg/ml and the run infusion according to the protocol above.
as §1
The method comprised the infusion of a patient suffering from CAH with hydrocortisone and the measurement of cortisol and ACTH levels. The patient is a person with CAH who is currently treated with oral hydrocortisone.
The infusion protocol for the patient is described in FIG. 5. […] Concomitant with the fall in ACTH the 17-OH progesterone fell from >500 nmol/l to a nadir of 67 nmol/l.

[5] = Study 1: pharmacokinetics of 10 mg fixed dose oral HC in adrenal-insufficient patients; type: in vivo, human; conditions: for oral clearance / half-life: 10 mg oral, mean±S.E.M.; for Bias (AUC), % difference from healthy matched controls / Variability in AUC (C.V.) / Variability in Cmax (C.V.): Fixed 10 mg, listed as HC; for half-life: both sexes, human, serum, po, 10 mg, read-out: absorption half-life
Method: as §1, §2
Study 1—Pharmacokinetics of 10 mg fixed dose oral HC: Ten patients (5M, 5F, Age 32-72 yrs, BMI 21.7-35.8 kg/m^2) attended the Programmed Investigation Unit on 3 occasions. They discontinued HC replacement from noon on the day prior to the study and fasted from midnight. On the first and third occasions, the patients fasted throughout the study and, on the second occasion, they received a standard breakfast 20-30 minutes before receiving HC. On each of the 3 study days, patients received 10 mg of HC (Hydrocortone™, Merck, Sharp and Dohme) orally, between 0800-0900 h. Peripheral venous blood samples were taken immediately before dosage and at 20, 40, 50, 60, 70, 80, 90, 100, 120, 180, 240, 300 and 360 minutes after dosage; the serum was collected and stored pending assay for HC.
as §3

[6] = in vivo; cited from earlier work
[7] = Weight-adjusted (0.12 mg/kg), if weight adjustment was assumed

## C[C@]12CCC(=O)C=C1CC[C@@H]1[C@@H]2[C@@H](O)C[C@@]2(C)[C@H]1CC[C@]2(O)C(=O)CO [hydrocortisone, Hydrocortisone]
[1]; basal conditions, plasma
  circulating cortisol bound to CBG: about 75%
[1]; in vivo
  cortisol and metabolites conjugated in the liver and excreted in the urine: Over 90%
  cortisol excreted in the urine unchanged: less than 1%
[2]; IV administration
  half-life: 102 min
  total body clearance: 18 L/h
  volume of distribution: 34 L
[2]; oral vs IV, average
  Oral bioavailablity: 96%
[2]; oral
  time to maximum levels (absorption): 1 h
[3]; BSA-adjusted (5.5 mg/m^2)
  Bias (AUC), % difference from healthy matched controls: 7.4%
  Variability in AUC (C.V.): 24%**
  Variability in Cmax (C.V.): 10%*
[3]; [7]
  Variability in AUC (C.V.): 22%**
  Variability in Cmax (C.V.): 7%*
[4]; CAH patient on conventional oral hydrocortisone therapy, start of infusion
  17-OH progesterone before the fall: > 500 nmol/L
[4]; CAH patient, during hydrocortisone infusion
  17-OH progesterone nadir: 67 nmol/L
[4]; CAH patient, infusion simulating delayed and sustained release hydrocortisone
  morning ACTH after overnight increase in cortisol: prevents the high morning ACTH
[4]; CAH patient, iv bolus 24 mg then circadian infusion
  ACTH during the infusion: rapidly falls
[5]; fasted
  oral clearance: 0.270 ± 0.027 L/min
  Bias (AUC), % difference from healthy matched controls: 6.3%
  Variability in AUC (C.V.): 50%
  Variability in Cmax (C.V.): 31%
  half-life: 15 ± 4 min
[5]; fed
  oral clearance: 0.226 ± 0.031 L/min
  Bias (AUC), % difference from healthy matched controls: 24.5%
  Variability in AUC (C.V.): 45%
  Variability in Cmax (C.V.): 36%
  half-life: 43 ± 12 min
[6]
  oral bioavailability: 94-96%
